Earlier results on 5 molecules are cited in patent publication US7910613B2, “2-acylaminothiazole derivatives” (H. Lundbeck A/S, priority 2004, dated 2011).

Where two headings read alike, the source gives them in different places.

The subject of data set [1] is unilateral 6-OHDA (6-hydroxydopamine) lesioned mice and rats. The note with it: elicited by a subtreshold dose of levodopa.
The test system of data set [2] is mice. The note with it: for total immobility time: mouse tail suspension test.
Data set [3] has as its system non-human primates.
The test system of data set [4] is MPTP treated mice and 6-OHDA-lesioned rats.
Data set [5] has as its system mice. The note with it: mouse forced swimming test.
Setting [6] is: mice previously screened for having high immobility time.

On to `Nc1nc2c(cnn2CCc2ccccc2)c2nc(-c3ccco3)nn12` [SCH58261, 2-(2-furanyl)-7-(2-phenylethyl)-7H-pyrazolo[4,3-e][1,2,4]triazolo[1,5-c]pyrimidin-5-amine], for which, in data set [1], the contralateral rotations entry is listed as “enhance contralateral rotations”. In addition, the immobility result is on record as “reduce immobility” in data set [2] (setting [6]) and “reduced immobility” in data set [2] (mice selectively bred for their helplessness). Also, in data set [2], the total immobility time entry is given as “reduced the total immobility time”.
For `CCn1c(=O)c2c(nc(/C=C/c3ccc(OC)c(OC)c3)n2C)n(CC)c1=O` [KW-6002, 8-[(1E)-2-(3,4-dimethoxyphenyl)ethenyl]-1,3-diethyl-3,7-dihydro-7-methyl-1H-purine-2,6-dione], the “motor impairment induced by MPTP” value in data set [3] is given as “significantly improves motor impairment”. The dyskinesias entry in data set [3] (MPTP) is reported as “without causing dyskinesias”. Also, in data set [1], the contralateral rotations result is “enhance contralateral rotations”. Also, the total immobility time entry in data set [2] is “reduced the total immobility time”. For the same molecule, in data set [4], the “functional loss of dopaminergic nerve terminals in the striatum” value is given as “prevented functional loss of dopaminergic nerve terminals in the striatum” and the “gliosis normally induced around degenerating neurons” value is “prevented gliosis”.
As to `Nc1nc(Cl)nc2c1ncn2[C@@H]1O[C@H](CO)[C@@H](O)[C@H]1O` [2-chloroadenosine], the immobility time result in data set [5] was “increased immobility time”.
For `Nc1nc(NCCc2ccc(O)cc2)nc2nc(-c3ccco3)nn12` [ZM241385, 4-(2-[7-amino-2-(2-furyl)[1,2,4]triazolo[2,3-a][1,3,5]triazin-5-ylamino]-ethyl)phenol], the immobility entry in data set [2] (setting [6]) is on record as “reduce immobility”.
With `Nc1ncnc2c1ncn2[C@@H]1O[C@H](CO)[C@@H](O)[C@H]1O` [adenosine], the immobility time entry in data set [5] is reported as “increased immobility time”.
